The results in this text go back to US10730863B2, “Bridged bicyclic compounds as farnesoid X receptor modulators” (BRISTOL-MYERS SQUIBB COMPANY, priority 2017, dated 2020).

The experiment concerns the target FXR (Homo sapiens (Human), UniProt Q96RI1). The experiment can be described thus: FXR EC50 (FXR agonist activity reported with each example). The format is cell-based.

FXR, sequence (Q96RI1 262-486): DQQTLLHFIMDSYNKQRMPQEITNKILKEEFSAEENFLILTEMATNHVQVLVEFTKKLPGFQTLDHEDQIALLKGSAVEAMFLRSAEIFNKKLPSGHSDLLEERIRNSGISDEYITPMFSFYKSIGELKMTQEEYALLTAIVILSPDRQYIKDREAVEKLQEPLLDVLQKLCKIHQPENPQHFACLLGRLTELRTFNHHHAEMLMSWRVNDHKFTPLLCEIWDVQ

As to `O=C(O)c1cc(-c2noc(C34CCC(OCc5c(-c6c(Cl)cccc6Cl)noc5C5CC5)(CC3)CC4)n2)ccn1` [Example 14, 4-(5-(4-((5-cyclopropyl-3-(2,6-dichlorophenyl)isoxazol-4-yl)methoxy)bicyclo[2.2.2]octan-1-yl)-1,2,4-oxadiazol-3-yl)picolinic acid], the EC50 (in general, the concentration at which the effect is half-maximal) was determined as 130 nM. For the compound `COC(=O)c1cccc(-c2noc(C34CCC(C=Cc5c(-c6c(Cl)cccc6Cl)noc5C5CC5)(CC3)CC4)n2)c1` [Intermediate 159F, methyl 3-(5-(4-(2-(5-cyclopropyl-3-(2,6-dichlorophenyl)isoxazol-4-yl)vinyl)bicyclo[2.2.2]octan-1-yl)-1,2,4-oxadiazol-3-yl)benzoate], the EC50 came out at 4600 nM. As for `O=C(O)c1ccc(N2CCOCC2)c2nc(C34CCC(OCc5c(-c6c(Cl)cncc6Cl)noc5C5CC5)(CC3)CC4)ccc12` [Example 410, 2-(4-((5-cyclopropyl-3-(3,5-dichloropyridin-4-yl)isoxazol-4-yl)methoxy)bicyclo[2.2.2]octan-1-yl)-8-morpholinoquinoline-5-carboxylic acid], the figure is 36 nM; as for `O=C(O)c1ccn2c(C#CC34CCC(OCc5c(-c6c(Cl)cncc6Cl)noc5C5CC5)(CC3)CC4)cnc2c1` [Example 393], 270 nM. The compound `O=C(O)c1ccc2cc(C#CC34CCC(OCc5c(-c6c(Cl)cncc6Cl)noc5C5CC5)(CC3)CC4)ccc2n1` [Example 382] displayed an EC50 of 62 nM. As for `O=C(O)c1cncc(-c2noc(C34CCC(OCc5c(-c6ccccc6OC(F)(F)F)noc5C5CC5)(CC3)CC4)n2)c1` [Example 44], the figure is 870 nM. As for `O=C(O)c1cc(OC2COC2)c2cc(OCC34CCC(OCc5c(-c6c(Cl)cncc6Cl)noc5C5CC5)(CC3)CC4)ccc2n1` [Example 361], the figure is 71 nM; as for `COCCOc1cc(OCC23CCC(OCc4c(-c5c(Cl)cncc5Cl)noc4C4CC4)(CC2)CC3)cnc1C(=O)O` [Example 336], 160 nM; as for `O=C(O)c1cc(-c2noc(C34CCC(/C=C/c5c(-c6c(Cl)cncc6Cl)noc5C5CC5)(CC3)CC4)n2)cc(C(F)(F)F)c1` [Example 436, (E)-3-(5-(4-(2-(5-cyclopropyl-3-(3,5-dichloropyridin-4-yl)isoxazol-4-yl)vinyl)bicyclo[2.2.2]octan-1-yl)-1,2,4-oxadiazol-3-yl)-5-(trifluoromethyl)benzoic acid], 18 nM. The same measure for `O=C(O)c1cc(-c2noc(C34CCC(/C=C/c5c(-c6c(Cl)cncc6Cl)noc5C5CC5)(CC3)OC4)n2)cc(C(F)(F)F)c1` [Example 494, (E)-3-(5-(1-(2-(5-cyclopropyl-3-(3,5-dichloropyridin-4-yl)isoxazol-4-yl)vinyl)-2-oxabicyclo[2.2.2]octan-4-yl)-1,2,4-oxadiazol-3-yl)-5-(trifluoromethyl)benzoic acid]: 130 nM. Compound `O=C(O)c1cccc(-c2noc(C34CCC(CNc5c(-c6c(Cl)cccc6Cl)noc5C5CC5)(CC3)CC4)n2)c1` [Example 166, 3-(5-(4-(((5-cyclopropyl-3-(2,6-dichlorophenyl)isoxazol-4-yl)amino)methyl)bicyclo[2.2.2]octan-1-yl)-1,2,4-oxadiazol-3-yl)benzoic acid] came in with an EC50 of 580 nM.

Compound `COC1CN(c2cc(C(=O)O)nc3ccc(OCC45CCC(OCc6c(-c7c(Cl)cncc7Cl)noc6C6CC6)(CC4)CC5)cc23)C1` [Example 329, 6-((4-((5-cyclopropyl-3-(3,5-dichloropyridin-4-yl)isoxazol-4-yl)methoxy)bicyclo[2.2.2]octan-1-yl)methoxy)-4-(3-methoxyazetidin-1-yl)quinoline-2-carboxylic acid] registered an EC50 of 1400 nM. As for `O=C(O)c1cc(C(F)(F)F)cc2nc(C34CCC(OCc5c(-c6c(Cl)cncc6Cl)noc5C5CC5)(CC3)CC4)sc12` [Example 434, 2-(4-((5-cyclopropyl-3-(3,5-dichloropyridin-4-yl)isoxazol-4-yl)methoxy)bicyclo[2.2.2]octan-1-yl)-5-(trifluoromethyl)benzo[d]thiazole-7-carboxylic acid], the figure is 18 nM; as for `COc1nc(C(=O)O)cc2ccc(/C=C/C34CCC(OCc5c(-c6c(Cl)cncc6Cl)noc5C5CC5)(CC3)CC4)cc12` [Example 517, (E)-7-(2-(4-((5-cyclopropyl-3-(3,5-dichloropyridin-4-yl)isoxazol-4-yl)methoxy)bicyclo[2.2.2]octan-1-yl)vinyl)-1-methoxyisoquinoline-3-carboxylic acid], 42 nM; as for `O=C(O)c1cccc(NC(=O)C23CCC(C=Cc4c(-c5c(Cl)cccc5Cl)noc4C4CC4)(CC2)CC3)c1Cl` [Example 185], 1400 nM. The same measure for `O=C(O)c1ccc(-c2noc(C34CCC(/C=C\c5c(-c6c(Cl)cccc6Cl)noc5C5CC5)(CC3)CC4)n2)cc1` [Example 164]: 1600 nM; for `CCn1nc(OCC23CCC(OCc4c(-c5c(Cl)cncc5Cl)noc4C4CC4)(CC2)CC3)cc1C(=O)O` [Example 316]: 64 nM. In the case of `CC(C)Oc1cc(C(=O)O)nc2ccc(OCC34CCC(/C=C/c5c(-c6c(Cl)cncc6Cl)noc5C5CC5)(CC3)CO4)cc12` [Example 501, (E)-6-((4-(2-(5-cyclopropyl-3-(3,5-dichloropyridin-4-yl)isoxazol-4-yl)vinyl)-2-oxabicyclo[2.2.2]octan-1-yl)methoxy)-4-isopropoxyquinoline-2-carboxylic acid], the EC50 was found to be 54 nM. As for `O=C(O)c1cc(-c2noc(C34CCC(OCc5c(-c6ccccc6C(F)(F)F)noc5C5CC5)(CC3)CC4)n2)ccn1` [Example 50], the figure is 2100 nM; as for `N#Cc1cnc2ccc(OCC34CCC(OCc5c(-c6c(Cl)cncc6Cl)noc5C5CC5)(CC3)CC4)nn12` [Example 462, 6-((4-((5-cyclopropyl-3-(3,5-dichloropyridin-4-yl)isoxazol-4-yl)methoxy)bicyclo[2.2.2]octan-1-yl)methoxy)imidazo[1,2-b]pyridazine-3-carbonitrile], 220 nM.

Consider `O=C(O)c1ccc2nc(C34CCC(COCc5c(-c6c(Cl)cccc6Cl)noc5C5CC5)(CC3)CC4)oc2c1` [Example 178, 2-(4-(((5-cyclopropyl-3-(2,6-dichlorophenyl)isoxazol-4-yl)methoxy)methyl)bicyclo[2.2.2]octan-1-yl)benzo[d]oxazole-6-carboxylic acid], for which the EC50 is 910 nM. The same measure for `CC(C)Oc1cc(C(=O)O)nc2ccc(OCC34CCC(OCc5c(-c6c(Cl)cncc6Cl)noc5C5CC5)(CC3)CC4)cc12` [Example 328, 6-((4-((5-cyclopropyl-3-(3,5-dichloropyridin-4-yl)isoxazol-4-yl)methoxy)bicyclo[2.2.2]octan-1-yl)methoxy)-4-isopropoxyquinoline-2-carboxylic acid]: 15 nM. `O=C(O)c1ccc(C23CCC(CNc4c(-c5c(Cl)cccc5Cl)noc4C4CC4)(CC2)CO3)cc1` [Example 203, 4-(4-(((5-cyclopropyl-3-(2,6-dichlorophenyl)isoxazol-4-yl)amino)methyl)-2-oxabicyclo[2.2.2]octan-1-yl)benzoic acid]: it took 420 nM to reach a half-maximal effect (EC50). As for `Cc1cc(OCC23CCC(OCc4c(-c5c(Cl)cncc5Cl)noc4C4CC4)(CC2)CC3)cc(C(=O)O)c1` [Example 322], the figure is 7 nM; as for `O=C(O)c1cc(OC2COC2)c2cc(OCC34CCC(OCc5c(-c6c(Cl)cncc6Cl)noc5C5CC5)(CC3)CC4)cc(F)c2n1` [Example 312, 6-((4-((5-cyclopropyl-3-(3,5-dichloropyridin-4-yl)isoxazol-4-yl)methoxy)bicyclo[2.2.2]octan-1-yl)methoxy)-8-fluoro-4-(oxetan-3-yloxy)quinoline-2-carboxylic acid], 47 nM. The same measure for `O=C(O)c1ccc(OCC23CCC(OCc4c(-c5c(Cl)cccc5Cl)noc4C4CC4)(CC2)CC3)cc1` [Example 99, 4-((4-((5-cyclopropyl-3-(2,6-dichlorophenyl)isoxazol-4-yl)methoxy)bicyclo[2.2.2]octan-1-yl)methoxy) benzoic acid]: 140 nM. `COc1cc(C(=O)O)nc2ccc(OCC34CCC(OCc5c(-c6c(Cl)cncc6Cl)noc5C5CC5)(CC3)CC4)cc12` [Example 282, 6-((4-((5-cyclopropyl-3-(3,5-dichloropyridin-4-yl)isoxazol-4-yl)methoxy)bicyclo[2.2.2]octan-1-yl)methoxy)-4-methoxyquinoline-2-carboxylic acid]: the half-maximal effective concentration (EC50) turned out to be 60 nM.

`CCCc1cc(C(=O)O)nc2ccc(OCC34CCC(OCc5c(-c6c(Cl)cncc6Cl)noc5C5CC5)(CC3)CC4)cc12` [Example 338, 6-((4-((5-cyclopropyl-3-(3,5-dichloropyridin-4-yl)isoxazol-4-yl)methoxy)bicyclo[2.2.2]octan-1-yl)methoxy)-4-propylquinoline-2-carboxylic acid] yielded an EC50 of 17 nM.

Compound `O=C(O)c1cc(C#CC23CCC(OCc4c(-c5c(Cl)cncc5Cl)noc4C4CC4)(CC2)CC3)cc2[nH]ncc12` [Example 411] came in with a concentration giving a half-maximal response (EC50) of 89 nM. As for `O=C(O)c1ccc2nc(C34CCC(/C=C/c5c(-c6c(Cl)cccc6Cl)noc5C5CC5)(CC3)CC4)sc2c1` [Example 180, (E)-2-(4-(2-(5-cyclopropyl-3-(2,6-dichlorophenyl)isoxazol-4-yl)vinyl)bicyclo[2.2.2]octan-1-yl)benzo[d]thiazole-6-carboxylic acid], the figure is 43 nM; as for `O=C(O)c1cc(OCC23CCC(/C=C/c4c(-c5c(Cl)cncc5Cl)noc4C4CC4)(CC2)CO3)cc(C(F)(F)F)c1` [Example 468, (E)-3-((4-(2-(5-cyclopropyl-3-(3,5-dichloropyridin-4-yl)isoxazol-4-yl)vinyl)-2-oxabicyclo[2.2.2]octan-1-yl)methoxy)-5-(trifluoromethyl)benzoic acid], 70 nM. As for `O=C(O)c1cc(-c2noc(C34CCC(OCc5c(-c6c(Cl)cncc6Cl)noc5C5CC5)(CC3)CC4)n2)cc(C(F)(F)F)n1` [Example 264, 4-(5-(4-((5-cyclopropyl-3-(3,5-dichloropyridin-4-yl)isoxazol-4-yl)methoxy)bicyclo[2.2.2]octan-1-yl)-1,2,4-oxadiazol-3-yl)-6-(trifluoromethyl)picolinic acid], the figure is 180 nM.
